Source: US9586951B2 (FUJIFILM Corporation, priority 2013, dated 2017)

Target: T1, ATM (Homo sapiens, UniProt Q13315)
T1 construct: detecting phosphorylation of Chk2 in a human non-small cell lung cancer cell line NCI-H460 (ATCC company); host or cells: NCI-H460 human non-small cell lung cancer cells
Assay: ATM inhibition test (phosphorylation of Chk2 generated by ionizing radiation, AlphaScreen SureFire)
Assay type: cell-based
Conditions: phosphorylated Chk2 in NCI-H460 cells, ionizing radiation 8Gy, 1 hour after test compound treatment; read-out: ATM inhibitory activity
Outline: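 Phosphorylated Chk2 read by AlphaScreen SureFire in human non-small cell lung cancer NCI-H460 cells, 1 hour after 8Gy ionizing radiation at 37° C. Compound added 1 hour before irradiation. Percent inhibition normalised between irradiated and non-irradiated drug-untreated signals.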

T1 sequence (Q13315 whole entry): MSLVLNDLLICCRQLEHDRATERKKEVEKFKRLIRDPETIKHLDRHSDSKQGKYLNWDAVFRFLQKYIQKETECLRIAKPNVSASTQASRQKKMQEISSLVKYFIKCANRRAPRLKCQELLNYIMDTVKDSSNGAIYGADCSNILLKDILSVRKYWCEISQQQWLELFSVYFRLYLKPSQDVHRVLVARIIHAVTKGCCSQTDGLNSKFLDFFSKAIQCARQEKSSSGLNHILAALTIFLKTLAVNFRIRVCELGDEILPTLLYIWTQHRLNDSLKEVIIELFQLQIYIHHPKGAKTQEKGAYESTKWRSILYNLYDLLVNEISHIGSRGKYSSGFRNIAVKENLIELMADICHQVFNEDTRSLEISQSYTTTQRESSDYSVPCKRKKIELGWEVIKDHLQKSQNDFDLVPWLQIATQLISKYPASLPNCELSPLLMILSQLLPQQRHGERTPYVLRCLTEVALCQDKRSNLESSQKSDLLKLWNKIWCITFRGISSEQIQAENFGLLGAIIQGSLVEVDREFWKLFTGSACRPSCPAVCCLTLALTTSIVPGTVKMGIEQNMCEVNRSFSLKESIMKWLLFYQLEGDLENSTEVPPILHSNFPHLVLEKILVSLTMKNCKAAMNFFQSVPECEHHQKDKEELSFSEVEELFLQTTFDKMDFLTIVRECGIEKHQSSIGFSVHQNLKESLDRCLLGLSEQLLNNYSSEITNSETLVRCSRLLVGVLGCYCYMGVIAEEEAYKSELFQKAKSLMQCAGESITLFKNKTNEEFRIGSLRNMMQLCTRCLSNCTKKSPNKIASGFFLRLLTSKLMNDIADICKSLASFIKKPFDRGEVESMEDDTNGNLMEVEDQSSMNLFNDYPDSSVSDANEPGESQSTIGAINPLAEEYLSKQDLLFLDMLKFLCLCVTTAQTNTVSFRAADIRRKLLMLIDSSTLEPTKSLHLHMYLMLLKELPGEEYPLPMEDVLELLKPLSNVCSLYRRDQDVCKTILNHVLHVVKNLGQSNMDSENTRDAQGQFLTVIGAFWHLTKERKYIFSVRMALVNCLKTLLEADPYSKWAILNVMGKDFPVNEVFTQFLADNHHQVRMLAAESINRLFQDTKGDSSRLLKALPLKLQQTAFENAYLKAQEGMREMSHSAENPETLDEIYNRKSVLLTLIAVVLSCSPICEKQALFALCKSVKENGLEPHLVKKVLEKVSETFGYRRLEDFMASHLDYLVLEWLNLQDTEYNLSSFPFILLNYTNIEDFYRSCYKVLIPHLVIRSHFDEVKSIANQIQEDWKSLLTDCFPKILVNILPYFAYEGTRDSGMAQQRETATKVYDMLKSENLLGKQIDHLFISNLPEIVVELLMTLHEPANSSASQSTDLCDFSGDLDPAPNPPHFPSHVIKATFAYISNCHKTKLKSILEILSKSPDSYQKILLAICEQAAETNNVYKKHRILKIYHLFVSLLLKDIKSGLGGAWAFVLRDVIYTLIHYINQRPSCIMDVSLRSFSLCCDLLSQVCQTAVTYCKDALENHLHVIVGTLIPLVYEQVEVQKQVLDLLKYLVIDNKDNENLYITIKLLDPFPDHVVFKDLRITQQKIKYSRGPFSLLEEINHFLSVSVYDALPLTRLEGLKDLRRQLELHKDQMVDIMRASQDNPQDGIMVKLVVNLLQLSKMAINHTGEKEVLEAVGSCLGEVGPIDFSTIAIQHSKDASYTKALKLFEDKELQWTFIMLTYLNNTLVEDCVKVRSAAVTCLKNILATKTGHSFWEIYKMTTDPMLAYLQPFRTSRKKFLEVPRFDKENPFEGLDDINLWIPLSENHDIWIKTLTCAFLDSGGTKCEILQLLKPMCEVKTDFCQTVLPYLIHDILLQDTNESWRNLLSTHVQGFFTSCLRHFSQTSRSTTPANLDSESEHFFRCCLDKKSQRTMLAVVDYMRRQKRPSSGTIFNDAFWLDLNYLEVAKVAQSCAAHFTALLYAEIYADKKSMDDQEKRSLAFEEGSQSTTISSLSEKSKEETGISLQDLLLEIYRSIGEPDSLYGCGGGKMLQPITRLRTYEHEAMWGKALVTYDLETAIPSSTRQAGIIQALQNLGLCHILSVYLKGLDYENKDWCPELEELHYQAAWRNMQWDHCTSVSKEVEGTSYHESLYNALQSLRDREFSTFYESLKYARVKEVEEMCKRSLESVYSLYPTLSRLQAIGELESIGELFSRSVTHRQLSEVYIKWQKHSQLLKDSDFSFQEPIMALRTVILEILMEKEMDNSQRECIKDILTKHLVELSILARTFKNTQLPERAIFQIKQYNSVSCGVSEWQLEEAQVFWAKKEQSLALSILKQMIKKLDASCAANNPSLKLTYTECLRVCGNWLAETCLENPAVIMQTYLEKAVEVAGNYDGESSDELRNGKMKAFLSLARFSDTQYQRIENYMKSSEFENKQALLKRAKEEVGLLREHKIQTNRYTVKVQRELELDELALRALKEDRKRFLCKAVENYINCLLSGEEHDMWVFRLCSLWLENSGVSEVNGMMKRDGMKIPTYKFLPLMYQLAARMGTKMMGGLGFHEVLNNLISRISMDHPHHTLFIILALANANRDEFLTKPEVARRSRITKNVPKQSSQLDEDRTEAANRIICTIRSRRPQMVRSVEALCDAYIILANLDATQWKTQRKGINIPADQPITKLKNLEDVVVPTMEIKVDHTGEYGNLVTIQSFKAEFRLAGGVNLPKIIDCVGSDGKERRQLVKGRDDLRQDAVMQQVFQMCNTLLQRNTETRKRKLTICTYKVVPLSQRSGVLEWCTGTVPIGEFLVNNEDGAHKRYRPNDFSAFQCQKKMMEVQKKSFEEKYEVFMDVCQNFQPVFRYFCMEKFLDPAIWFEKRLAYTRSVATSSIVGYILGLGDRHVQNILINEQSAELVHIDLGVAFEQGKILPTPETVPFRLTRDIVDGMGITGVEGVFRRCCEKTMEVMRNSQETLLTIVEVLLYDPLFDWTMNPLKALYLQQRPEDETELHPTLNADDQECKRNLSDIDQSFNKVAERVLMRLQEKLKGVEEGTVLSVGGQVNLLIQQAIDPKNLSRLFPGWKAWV

IC50 [nM]	Compound
100 to 500	CC(=O)Nc1ccc(CCN2CCC(Nc3ccc4c(c3)Cc3cccc(-c5cc(N6CCOCC6)cc(=O)[nH]5)c3O4)CC2)cc1 [Example 2-32, N-(4-(2-(4-((5-(4-morpholino-6-oxo-1,6-dihydropyridin-2-yl)-9H-xanthen-2-yl)amino)piperidin-1-yl)ethyl)phenyl)acetamide]
< 100	Cc1cnc(C(CCN(C)C)Nc2ccc3c(c2)Sc2cccc(-c4cc(=O)cc(N5CCOCC5)o4)c2O3)cn1 (single isomer, unassigned) [Example 10-9, 2-(8-((3-(Dimethylamino)-1-(5-methylpyrazin-2-yl)propyl)amino)phenoxathiin-4-yl)-6-morpholino-4H-pyran-4-one]
500 to 2000	O=c1cc(N2CCOCC2)cc(-c2cccc3c2Oc2ccc(NC4CCN(CCCc5ccccc5)CC4)cc2C3)[nH]1 [Example 2-28-34, 4-Morpholino-6-(7-((1-(3-phenylpropyl)piperidin-4-yl)amino)-9H-xanthen-4-yl) pyridin-2(1H)-one]
500 to 2000	O=c1cc(N2CCOCC2)cc(-c2cccc3c2Oc2ccc(NCc4cncs4)cc2C3)[nH]1 [Example 2-14-37, 4-Morpholino-6-(7-((thiazol-5-ylmethyl)amino)-9H-xanthen-4-yl) pyridin-2(1H)-one]
< 100	O=c1cc(N2CCOCC2)cc(-c2cccc3c2Sc2ccc(NC4CCCN(Cc5ccncc5)C4)cc2S3)[nH]1 (centres unmarked) [Example 1-24-4, 4-Morpholino-6-(7-((1-(pyridin-4-ylmethyl)piperidin-3-yl)amino)thianthren-1-yl)pyridin-2 (1H)-one]
100 to 500	CC(Nc1ccc2c(c1)Cc1cccc(-c3cc(N4CCOCC4)cc(=O)[nH]3)c1O2)c1cnccn1 (centres unmarked) [Example 2-14-77, 4-Morpholino-6-(7-((1-(pyrazin-2-yl)ethyl)amino)-9H-xanthen-4-yl)pyridin-2 (1H)-one]
< 100	O=c1cc(N2CCOCC2)cc(-c2cccc3c2Oc2ccc(NCc4cnc5c(c4)OCCO5)cc2C3)[nH]1 [Example 2-2-29, 6-(7-(((2,3-Dihydro-[1,4]dioxino[2,3-b]pyridin-7-yl)methyl)amino)-9H-xanthen-4-yl)-4-morpholino pyridin-2 (1H)-one]
100 to 500	CC(Nc1ccc2c(c1)Cc1cccc(-c3cc(N4CCOCC4)cc(=O)[nH]3)c1O2)C(=O)N1CCCC1 (centres unmarked) [Example 2-15, 4-Morpholino-6-(7-((1-oxo-1-(pyrrolidin-1-yl)propan-2-yl)amino)-9H-xanthen-4-yl)pyridin-2(1H)-one]
100 to 500	Cc1ccnc(C(C)Nc2ccc3c(c2)Cc2cccc(-c4cc(N5CCOCC5)cc(=O)[nH]4)c2O3)n1 (centres unmarked) [Example 2-14-79, 6-(7-((1-(4-Methylpyrimidin-2-yl)ethyl)amino)-9H-xanthen-4-yl)-4-morpholino pyridin-2(1H)-one]
< 100	Cc1ccc(C(CCN2CCN(C)CC2)Nc2ccc3c(c2)Sc2cccc(-c4cc(N5CCOCC5)cc(=O)[nH]4)c2S3)nc1 (single isomer, unassigned) [Example 10-3-1, 6-(7-((3-(4-Methylpiperazin-1-yl)-1-(5-methylpyridin-2-yl)propyl)amino)thianthren-1-yl)-4-morpholino pyridin-2 (1H)-one]
100 to 500	Cc1cccc(CNc2ccc3c(c2)Cc2cccc(-c4nc(N5CCOCC5)cc(=O)[nH]4)c2O3)n1 [Example 2-52-1, 2-(7-(((6-Methylpyridin-2-yl)methyl)amino)-9H-xanthen-4-yl)-6-morpholino pyrimidine-4(3H)-one]
500 to 2000	O=c1cc(N2CCOCC2)cc(-c2cccc3c2Oc2ccc(NC4CCN(CCCF)CC4)cc2C3)[nH]1 [Example 2-30-12, 6-(7-((1-(3-Fluoropropyl)piperidin-4-yl)amino)-9H-xanthen-4-yl)-4-morpholino pyridin-2(1H)-one]
100 to 500	CC(C)(C)OC(=O)N1CCC(Nc2ccc3c(c2)Sc2cccc(-c4cc(N5CCOCC5)cc(=O)[nH]4)c2O3)CC1 [Example 4-8-3, tent-Butyl 4-((6-(4-morpholino-6-oxo-1,6-dihydropyridin-2-yl)phenoxathiin-2-yl)amino) piperidin-l-carboxylate]
500 to 2000	O=c1cc(N2CCOCC2)cc(-c2cccc3c2Oc2ccc(NCCN4CCOCC4)cc2C3)[nH]1 [Example 2-23-2, 4-Morpholino-6-(7-((2-morpholinoethyl)amino)-9H-xanthen-4-yl)pyridin-2(1H)-one]
100 to 500	Cc1cnc(C(CCN(C)CCO)Nc2ccc3c(c2)Sc2cccc(-c4cc(N5CCOCC5)cc(=O)[nH]4)c2S3)cn1 (single isomer, unassigned) [Example 10-4-2, 6-(7-((3-((2-Hydroxyethyl)(methyl)amino)-1-(5-methylpyrazin-2-yl)propyl)amino)thianthren-1-yl)-4-morpholinopyridin-2(1H)-one]
< 100	O=c1cc(N2CCOCC2)cc(-c2cccc3c2Oc2ccc(NCc4cnc5occc5c4)cc2C3)[nH]1 [Example 2-2-44, 6-(7-((Furo[2,3-b]pyridin-5-ylmethyl)amino)-9H-xanthen-4-yl)-4-morpholino pyridin-2(1H)-one]

IC50 [nM]	Compound
100 to 500	COc1ccc(CCN2CCC(Nc3ccc4c(c3)Sc3cccc(-c5cc(N6CCOCC6)cc(=O)[nH]5)c3S4)CC2)cc1 [Example 1-27, 6-(7-((1-(4-methoxyphenethyl)piperidin-4-yl)amino)thianthren-1-yl)-4-morpholinopyridin-2(1H)-one]
500 to 2000	O=c1cc(N2CCOCC2)cc(-c2cccc3c2Oc2ccc(NC4CCCN(CCc5ccccc5)C4)cc2C3)[nH]1 (centres unmarked) [Example 2-19-3, 4-Morpholino-6-(7-((1-phenethylpiperidin-3-yl)amino)-9H-xanthen-4-yl)pyridin-2(1H)-one]
500 to 2000	Cc1ccc(C(Nc2ccc3c(c2)Sc2cccc(-c4cc(N5CCOCC5)cc(=O)[nH]4)c2S3)C2CCCCC2)nc1 (centres unmarked) [Example 1-12-126, 6-(7-((Cyclohexyl(5-methylpyridin-2-yl)methyl)amino)thianthren-1-yl)-4-morpholino pyridin-2(1H)-one]
100 to 500	COc1cncc(C(C)Nc2ccc3c(c2)Sc2cccc(-c4cc(N5CCOCC5)cc(=O)[nH]4)c2S3)n1 (centres unmarked) [Example 1-12-78, 6-(7-((1-(6-Methoxypyrazin-2-yl)ethyl)amino)thianthren-1-yl)-4-morpholino pyridin-2 (1H)-one]
< 100	Cc1ccc(C(Nc2ccc3c(c2)Sc2cccc(-c4cc(N5CCOCC5)cc(=O)[nH]4)c2S3)C2CCN(CC(F)F)CC2)nc1 (centres unmarked) [Example 1-58, 6-(7-(((1-(2,2-difluoroethyl)piperidin-4-yl)(5-methylpyridin-2-yl)methyl)amino)thianthren-1-yl)-4-morpholinopyridin-2(1H)-one]
100 to 500	CC(Nc1ccc2c(c1)Sc1cccc(-c3cc(N4CCOCC4)cc(=O)[nH]3)c1S2)c1ccncn1 (centres unmarked) [Example 1-12-74, 4-Morpholino-6-(7-((1-(pyrimidin-4-yl)ethyl)amino)thianthren-1-yl)pyridin-2 (1H)-one]
100 to 500	CN(C)CCNc1ccc2c(c1)Sc1cccc(-c3cc(N4CCOCC4)cc(=O)[nH]3)c1S2 [Example 1-10-4, 6-(7-((2-(Dimethylamino)ethyl)amino)thianthren-1-yl)-4-morpholinopyridin-2(1H)-one]
100 to 500	O=c1cc(N2CCOCC2)cc(-c2cccc3c2Oc2ccc(NCc4cncc(-n5cccn5)c4)cc2C3)[nH]1 [Example 2-2-55, 6-(7-(((5-(1H-Pyrazol-1-yl)pyridin-3-yl)methyl)amino)-9H-xanthen-4-yl)-4-morpholino pyridin-2 (1H)-one]
100 to 500	O=c1cc(N2CCOCC2)cc(-c2cccc3c2Oc2ccc(NCc4cncc(-c5cccnc5)c4)cc2S3)[nH]1 [Example 4-4-10, 6-(8-(([3,3′-Bipyridin)-5-ylmethyl)amino)phenoxathiin-4-yl)-4-morpholino pyridin-2(1H)-one]
100 to 500	CCOC(=O)C(C)Nc1ccc2c(c1)Cc1cccc(-c3cc(N4CCOCC4)cc(=O)[nH]3)c1O2 (centres unmarked) [Example 2-14-72, Ethyl 2-((5-(4-morpholino-6-oxo-1,6-dihydropyridin-2-yl)-9H-xanthen-2-yl)amino) propanoate]
500 to 2000	CCC(CC)(Nc1ccc2c(c1)Sc1cccc(-c3cc(N4CCOCC4)cc(=O)[nH]3)c1S2)c1ccc(C)cn1 [Example 1-50-6, 6-(7-((3-(5-Methylpyridin-2-yl)pentan-3-yl)amino)thianthren-1-yl)-4-morpholino pyridin-2(1H)-one]
100 to 500	Cc1ccc(C(CCN(C)CCCN(C)C)Nc2ccc3c(c2)Sc2cccc(-c4cc(N5CCOCC5)cc(=O)[nH]4)c2S3)nc1 (single isomer, unassigned) [Example 10-5-2, 6-(7-((3-((3-(Dimethylamino)propyl)(methyl)amino)-1-(5-methylpyridin-2-yl)propyl)amino)thianthren-1-yl)-4-morpholinopyridin-2(1H)-one]
100 to 500	CN1CCC(Nc2ccc3c(c2)Sc2cccc(-c4cc(N5CCOCC5)cc(=O)[nH]4)c2O3)CC1 [Example 4-8-2, 6-(8-((1-Methylpiperidin-4-yl)amino)phenoxathiin-4-yl)-4-morpholino pyridin-2(1H)-one]
500 to 2000	COc1cncc(CNc2ccc3c(c2)Cc2cccc(-c4cc(N5CCOCC5)cc(=O)[nH]4)c2N3C)c1 [Example 7, 6-(7-(((5-Methoxypyridin-3-yl)methyl)amino)-10-methyl-9,10-dihydroacridin-4-yl)-4-morpholinopyridin-2(1H)-one]
100 to 500	CNc1ccc(CN2CCC(Nc3ccc4c(c3)Cc3cccc(-c5cc(N6CCOCC6)cc(=O)[nH]5)c3O4)CC2)cn1 [Example 2-28-8, 6-(7-((1-((6-(Methylamino)pyridin-3-yl)methyl)piperidin-4-yl)amino)-9H-xanthen-4-yl)-4-morpholino pyridin-2(1H)-one]
100 to 500	O=c1cc(N2CCOCC2)cc(-c2cccc3c2Sc2ccc(NC4CCCN(Cc5ccccn5)C4)cc2S3)[nH]1 (centres unmarked) [Example 1-24-3, 4-Morpholino-6-(7-((1-(pyridin-2-ylmethyl)piperidin-3-yl)amino)thianthren-1-yl)pyridin-2 (1H)-one]
